In data set [1] the target is pseudo-kinase domain (JH2) of human V617F mutant JAK2 (Homo sapiens (Human), UniProt O60674, F794H/V617F/W659A/W777A). As to the kind of experiment: JAK2 LanthaScreen JH2-V617F Binding Assay. The note with it: read-out: JH2 V617F Bind IC50. As for the experimental part:
JAK2 JH2-V617F binding assay utilizes pseudo-kinase domain (JH2, amino-acids 536-812 with 3 surface mutations W659A, W777A, F794H) of human V617F mutant JAK2 expressed as C-terminal His-Avi-tagged, biotinylated protein in a baculovirus expression system (BPS Bioscience, Catalog #79498). The assay was conducted in black 384-well polystyrene plates in a final reaction volume of 20 μL. JAK2 JH2-V617F (0.26 nM) was incubated with compounds (100 nL serially diluted in DMSO) in the presence of 50 nM Fluorescent JAK2-JH2 Tracer (MedChem Express Catalog #HY-102055) and 0.25 nM Streptavidin-Tb cryptate (Cisbio Part #610SATLB) in assay buffer (50 mM Tris, pH=7.5, 10 mM MgCl2, 0.01% Brij-35, 0.1% BSA, 1 mM EGTA, 5% Glycerol and 5 mM DTT). Non-specific binding was accessed in the presence of 2 mM ATP. After incubation for 1 hour at 25° C., LanthaScreen signals were read on a PHERAstar FS plate reader (BMG LABTECH). Data was analyzed with IDBS XLfit and GraphPad Prism 5.0 software using a four parameter dose response curve to determine IC50 for each compound.
A general note: In TR-FRET formats the signal depends on donor and acceptor labels being close together.

A further data set can be described thus: FaSSIF Solubility Assay. In kind it is physicochemical. To be noted: FaSSIF (fasted state simulated intestinal fluid), 25 °C, pH 6.5, fassif, thermodynamic from solid, FaSSIF pH=6.5, 25° C. The source says:
The FaSSIF (Fasted State Simulated Intestinal Fluid) solubility assay can predict how an oral drug is likely to be dissolved and potentially absorbed in the upper intestine after drinking a glass of water. FaSSIF solubility assay utilizes biorelevant intestinal media (Biorelevant, Part #FFF01) comprised of physiological surfactants, bile salts, and phospholipids that are present in the gastrointestinal fluids it mimics. FaSSIF (pH=6.5) has the average pH of a fasted intestinal fluid with similar osmolarity. The FaSSIF buffer was prepared by adding 20 mL of phosphate buffer to FaSSIF Powder. The buffer was then added to the dry compound of interest at a concentration of 1 mg/mL and then incubated at 25° C. for 24 hours in a Rototherm Plus (Part #H2024). After incubation, the Eppendorf tubes were centrifuged and run on an Agilent 1260 LC-MS. The LC-MS method is a 5 min gradient method of 2% to 95% acetonitrile with water (0.05% TFA) using a Sunfire C18, 5 um 2.1×50 mm (Part #186002539) column. A dry reference compound of interest was diluted to a known 1 mg/mL concentration in 1:1 of water and acetonitrile. Step-wise serial dilutions were performed and run on an Agilent 1260 LC-MS using the same conditions to make a standard curve. The area under the curve is reported for the compound of interest in FaSSIF buffer and the reference standards. Calculations were performed and the predicted solubility, μg/mL, was reported for compounds of the examples.

In data set [2] the target is FLT3 (Homo sapiens (Human), UniProt P36888). Nature of the data set: FLT3 Enzymatic Assay. It is filed as biochemical. To be noted: 1 mM ATP. As for the experimental part:
(§1) The kinase assays were carried out at room temperature in assay buffer (HEPES 50 mM, pH 7.0, NaN3 0.02%, BSA 0.01%, Orthovanadate 0.1 mM, DTT 1 mM, MgCl2 10 mM) in a final volume of 10 μL. Testing compounds were prepared by serial dilution in DMSO and transferred to the plate wells by ECHO liquid handler (Labcyte) with 0.5% DMSO in the final assay. […]. Reactions were initiated by the addition of 5 μL ATP in assay buffer. The final 10 μL kinase reaction consists of 0.011 nM FLT3, 1 mM ATP, 500 nM TK Substrate-biotin and SEB reagent 62.5 nM in assay buffer. […] The plates were then sealed and centrifuged at 1800 rpm for 2 minutes. After 60 minutes incubation at room temperature, the product activity was determined by measuring the fluorescence at 620 nm and 665 nm on Pherastar microplate reader (BMG Labtech). A ratio is calculated (665/620 nm) for each well. Wells with DMSO only were served as the positive controls and wells containing no ATP were used as negative controls. IC50 determination was performed by fitting the curve of percent control activity versus the log of the compound concentration using the GraphPad Prism 7.0 software.

Data set [3] has as its system FLT3. As to the kind of experiment: FLT3 Enzymatic Assay. In kind it is biochemical. As for the experimental part: as §1
Data set [4] addresses TRKA (Homo sapiens (Human), UniProt P04629). As to the kind of experiment: TRKA Enzymatic Assay. It is filed as biochemical. To be noted: 1 mM ATP. As to the method:
(§2) The kinase assays were carried out at 24° C. temperature in assay buffer (HEPES 50 mM, pH 7.0, NaN3 0.02%, BSA 0.01%, Orthovanadate 0.1 mM, DTT 1 mM, MgCl2 10 mM) in a final volume of 10 μL. Testing compounds were prepared by serial dilution in DMSO and transferred to the plate wells by ECHO liquid handler (Labcyte) with 0.5% DMSO in the final assay. […]. Reactions were initiated by the addition of 5 μL ATP in assay buffer. The final 10 μL kinase reaction consisted of 0.58 nM TRKA, 1 mM ATP, 500 nM TK Substrate-biotin and SEB reagent 62.5 nM in assay buffer. […] After 60 minutes incubation at room temperature, the product activity was determined by measuring the fluorescence at 620 nm and 665 nm on Pherastar microplate reader (BMG Labtech). A ratio was calculated (665/620 nm) for each well. Wells with DMSO only served as the positive controls and wells containing no ATP were used as negative controls. IC50 determination was performed by fitting the curve of percent control activity versus the log of the compound concentration using the Gene data.

In data set [5] the test system is TRKA. Nature of the data set: TRKA Enzymatic Assay. In kind it is biochemical. As to the method: as §2
Data set [6] relates to STAT5 (Tyr694) phosphorylation in SET-2 cells. Nature of the data set: STAT5 (Tyr694) Phosphorylation Cell Based Assay. The note with it: Homo sapiens, 2 hours, read-out: SET2 IC50. As for the experimental part: SET-2 cells was purchased from DSMZ (Germany). RPMI1640 medium, Fetal Bovine Serum and 384-white sold flat-bottom small volume plate were purchased from Thermo Fisher Scientific (Waltham, MA). Phospho-STAT5 (Tyr694) HTRF kit was purchased from Perkin Elmer (Waltham, MA).
SET-2 cells were cultured in RPMI media with 20% FBS at 37° C. in humidified incubator supplied with 5% CO2. On the day of assay, the cells were centrifuged to remove the culture media and resuspended with prewarmed RPMI with 10% FBS. Testing compounds were prepared by serial dilution in DMSO and 50 nL/well test compounds were transferred to the 384 white low volume cell culture plate (Greiner Bio-one) by ECHO liquid handler (Labcyte). The cells were then dispensed with Multidrop (Thermo Fisher, Waltham, MA) at 10 μL/well (7×10^6 cells/mL) with 0.5% DMSO in the final assay. After the treated cells were incubated for 2 hours at 37° C./5% CO2 incubator, 4 μL/well supplemented lysis buffer (100× blocking buffer diluted 25 fold in 4× lysis buffer, Perkin Elmer) were added and incubated at room temperature for 90 min on orbital shaker at 600 rpm. Phospho-STAT5 Cryptate antibody and Phospho-STAT5 d2 antibody (1:1 vol/vol) were premixed and diluted 20 fold with in the detection buffer (Perkin Elmer). 4 μL of the premixed antibody solution were added to each well followed with 24 hours incubation at room temperature on orbital shaker at 600 rpm. The product activity was determined by measuring the fluorescence at 620 nm and 665 nm on Pherastar microplate reader (BMG Labtech). A ratio is calculated (665/620) for each well. Wells with DMSO only served as the positive controls and wells containing high concentration of control compound were used as negative controls. IC50 determination was performed by fitting the curve of percent control activity versus the log of the compound concentration using the GraphPad Prism 7.0 software.

Data set [7] concerns the target catalytic domain (JH1) of human JAK2 (Homo sapiens (Human), UniProt O60674). As to the kind of experiment: JAK2 LanthaScreen JH1 Binding Assay. The note with it: read-out: JH1 Bind IC50. As to the method:
JAK2 JH1 binding assay utilizes catalytic domain (JH1, amino acids 826-1132) of human JAK2 expressed as N-terminal FLAG-tagged, biotinylated protein in a baculovirus expression system (Carna Biosciences, Product #08-445-20N). The assay was conducted in black 384-well polystyrene plates in a final reaction volume of 20 μL. JAK2 JH1 (1.5 nM) was incubated with compounds (100 nL serially diluted in DMSO) in the presence of 50 nM fluorescent JAK2-JH1 tracer and 0.5 nM Streptavidin-Tb cryptate (Cisbio Part #610SATLB) in assay buffer (50 mM Tris, pH=7.5, 10 mM MgCl2, 0.01% Brij-35, 0.1% BSA, 1 mM EGTA, 5% Glycerol and 5 mM DTT). Non-specific binding was accessed in the presence of 2 mM ATP. After incubation for 2 hours at 25° C., LanthaScreen signals were read on a PHERAstar FS plate reader (BMG LABTECH). Data was analyzed with IDBS XLfit and GraphPad Prism 5.0 software using a four parameter dose response curve to determine IC50 for each compound.

Structures are written as SMILES. Like-named read-outs stand apart in the source and are kept apart here.

pseudo-kinase domain (JH2) of human V617F mutant JAK2, sequence (O60674 536-812 V617F/W659A/W777A/F794H): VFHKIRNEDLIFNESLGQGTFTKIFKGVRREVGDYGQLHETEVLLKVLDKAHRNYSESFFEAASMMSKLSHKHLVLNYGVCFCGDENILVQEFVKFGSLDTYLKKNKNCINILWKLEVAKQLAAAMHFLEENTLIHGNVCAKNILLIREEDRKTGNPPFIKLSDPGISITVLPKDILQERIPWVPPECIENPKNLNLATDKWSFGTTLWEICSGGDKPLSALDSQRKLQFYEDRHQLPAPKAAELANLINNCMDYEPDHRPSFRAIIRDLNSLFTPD
FLT3 (Homo sapiens (Human), UniProt P36888), sequence (P36888 27-993, species assumed): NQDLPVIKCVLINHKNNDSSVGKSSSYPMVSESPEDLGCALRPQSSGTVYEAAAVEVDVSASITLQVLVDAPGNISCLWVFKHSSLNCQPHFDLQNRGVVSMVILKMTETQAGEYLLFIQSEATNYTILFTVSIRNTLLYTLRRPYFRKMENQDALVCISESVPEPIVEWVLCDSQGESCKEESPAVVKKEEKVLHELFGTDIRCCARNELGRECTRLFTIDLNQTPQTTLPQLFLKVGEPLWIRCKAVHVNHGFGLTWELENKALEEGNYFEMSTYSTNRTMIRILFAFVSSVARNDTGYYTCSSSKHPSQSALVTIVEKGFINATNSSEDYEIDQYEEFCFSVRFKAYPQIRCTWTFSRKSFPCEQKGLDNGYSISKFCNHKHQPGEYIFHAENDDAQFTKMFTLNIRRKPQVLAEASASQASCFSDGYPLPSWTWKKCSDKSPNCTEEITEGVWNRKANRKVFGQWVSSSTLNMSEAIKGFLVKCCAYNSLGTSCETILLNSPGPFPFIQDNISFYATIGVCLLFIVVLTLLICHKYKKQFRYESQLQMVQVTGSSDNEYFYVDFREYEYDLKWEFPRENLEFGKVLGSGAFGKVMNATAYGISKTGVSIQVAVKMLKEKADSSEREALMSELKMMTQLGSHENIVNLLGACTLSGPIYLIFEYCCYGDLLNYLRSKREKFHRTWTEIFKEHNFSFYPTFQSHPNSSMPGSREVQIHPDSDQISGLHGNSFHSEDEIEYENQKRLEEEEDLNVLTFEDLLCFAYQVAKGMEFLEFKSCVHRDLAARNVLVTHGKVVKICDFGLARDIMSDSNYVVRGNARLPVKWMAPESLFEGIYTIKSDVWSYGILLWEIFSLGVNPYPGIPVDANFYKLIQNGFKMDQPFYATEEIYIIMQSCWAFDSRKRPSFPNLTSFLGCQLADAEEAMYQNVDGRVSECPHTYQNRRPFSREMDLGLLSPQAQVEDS
TRKA (Homo sapiens (Human), UniProt P04629), sequence (P04629 33-796, species assumed): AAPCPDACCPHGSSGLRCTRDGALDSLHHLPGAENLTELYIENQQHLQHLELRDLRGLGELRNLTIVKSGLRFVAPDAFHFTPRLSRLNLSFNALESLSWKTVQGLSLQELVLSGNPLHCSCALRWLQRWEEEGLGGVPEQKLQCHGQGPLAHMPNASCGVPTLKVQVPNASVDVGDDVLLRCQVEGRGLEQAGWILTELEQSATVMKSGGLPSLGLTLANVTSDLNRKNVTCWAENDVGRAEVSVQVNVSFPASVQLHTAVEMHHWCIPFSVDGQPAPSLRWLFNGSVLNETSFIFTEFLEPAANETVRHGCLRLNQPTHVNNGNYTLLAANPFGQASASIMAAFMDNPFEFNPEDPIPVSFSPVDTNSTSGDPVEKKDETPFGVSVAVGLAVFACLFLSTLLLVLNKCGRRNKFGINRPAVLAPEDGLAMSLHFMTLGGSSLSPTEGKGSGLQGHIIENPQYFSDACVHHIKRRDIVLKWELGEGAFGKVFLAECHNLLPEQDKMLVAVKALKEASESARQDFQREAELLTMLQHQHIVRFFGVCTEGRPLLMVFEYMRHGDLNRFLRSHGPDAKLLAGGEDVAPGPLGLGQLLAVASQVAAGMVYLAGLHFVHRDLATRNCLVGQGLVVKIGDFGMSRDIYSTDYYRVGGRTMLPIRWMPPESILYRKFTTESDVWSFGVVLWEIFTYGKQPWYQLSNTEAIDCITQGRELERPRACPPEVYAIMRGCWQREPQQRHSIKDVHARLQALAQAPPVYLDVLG
catalytic domain (JH1) of human JAK2, sequence (O60674 826-1132): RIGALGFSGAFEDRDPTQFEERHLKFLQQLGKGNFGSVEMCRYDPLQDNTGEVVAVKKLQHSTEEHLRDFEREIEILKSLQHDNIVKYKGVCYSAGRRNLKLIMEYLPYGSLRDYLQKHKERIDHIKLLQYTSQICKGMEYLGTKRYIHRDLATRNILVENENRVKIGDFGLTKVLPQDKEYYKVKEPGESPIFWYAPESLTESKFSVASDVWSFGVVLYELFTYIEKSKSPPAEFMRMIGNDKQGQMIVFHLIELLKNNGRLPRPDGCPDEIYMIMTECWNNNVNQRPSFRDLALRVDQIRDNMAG

As for `COc1ccc(-c2c(-c3cnn(Cc4ccncc4)c3)[nH]c3ncc4c(c23)n(C2CCCC2)c(=O)n4C)cc1` [Comparative Example D, reference compound], the IC50 (as a rule, the midpoint of a concentration-inhibition curve) in data set [1] is no more than 10 nM. For the same compound, the solubility (in general, the dissolved amount per volume that the medium holds) at 24 h in “FaSSIF Solubility Assay” (read-out: FaSSIF solubility) is less than 20 µg/mL.
As to `CN(C)C(=O)c1ccc(-c2[nH]c3ncc4c(c3c2-c2ccc3c(cnn3C)c2)n(C2CCCC2)c(=O)n4C)cc1` [Comparative Example F, reference compound], the half-inhibitory concentration (IC50) in data set [1] was no more than 10 nM; against FLT3 [2], 25 to 250 nM; against TRKA [4], 25 to 250 nM; in data set [6], 300 to 800 nM. Moreover, in the data set on FLT3 [3], the “Selectivity FLT3/JH2 V617F” value is given as “* (selectivity of ≤500-fold)”. The “Selectivity TRKA/JH2 V617F” value in the data set on TRKA [5] is “* (selectivity of ≤500-fold)”. In addition, the figures for the solubility at 24 h in the data set “FaSSIF Solubility Assay” (read-out: FaSSIF solubility) and in the data set “FaSSIF Solubility Assay” (read-out: Solubility Fassif) were less than 20 µg/mL and no more than 50 µg/mL, respectively.
Turning to `COC(=O)N[C@@H]1CC[C@@H](n2c(=O)n(C)c3cnc4[nH]c(-c5ccc(C(=O)N6CCC(F)(F)CC6)c(F)c5)c(-c5ccc6c(cnn6C(C)C)c5)c4c32)C1` [Example 24, Methyl ((1R,3R)-3-(7-(4-(4,4-difluoropiperidine-1-carbonyl)-3-fluorophenyl)-8-(1-isopropyl-1H-indazol-5-yl)-3-methyl-2-oxo-3,6-dihydroimidazo[4,5-d]pyrrolo[2,3-b]pyridin-1(2H)-yl)cyclopentyl)carbamate], the IC50 was no more than 10 nM in data set [1]; greater than 1000 nM in data set [7]; greater than 2500 nM against FLT3 [2]; greater than 2500 nM at TRKA [4]; 300 to 800 nM in data set [6]. For the same compound, the “Selectivity FLT3/JH2 V617F” value in the data set on FLT3 [3] was “****** (selectivity of >12500-fold)”. Moreover, the “Selectivity TRKA/JH2 V617F” value in the data set on TRKA [5] is reported as “****** (selectivity of >12500-fold)”.

The values above are taken from patent publication US20250092044A1, “Kinase Inhibitors” (Incyte Corporation, priority 2023, published 2025).
